Data on 22 compounds can be found in US20240018122A1, “PYRIDAZINYL AMINO DERIVATIVES AS ALK5 INHIBITORS” (CHIESI FARMACEUTICI S.P.A., priority 2020, published 2024).

A value given as a limit tells only on which side of the number the result lay.

The first assay deals with human ALK5 (Homo sapiens (Human), UniProt P36897). The assay is described as follows: ADP-GLO Kinases assay, inhibitory activity on ALK5. Type of assay: biochemical.
Chain of human ALK5 (P36897 80-503 limits assumed): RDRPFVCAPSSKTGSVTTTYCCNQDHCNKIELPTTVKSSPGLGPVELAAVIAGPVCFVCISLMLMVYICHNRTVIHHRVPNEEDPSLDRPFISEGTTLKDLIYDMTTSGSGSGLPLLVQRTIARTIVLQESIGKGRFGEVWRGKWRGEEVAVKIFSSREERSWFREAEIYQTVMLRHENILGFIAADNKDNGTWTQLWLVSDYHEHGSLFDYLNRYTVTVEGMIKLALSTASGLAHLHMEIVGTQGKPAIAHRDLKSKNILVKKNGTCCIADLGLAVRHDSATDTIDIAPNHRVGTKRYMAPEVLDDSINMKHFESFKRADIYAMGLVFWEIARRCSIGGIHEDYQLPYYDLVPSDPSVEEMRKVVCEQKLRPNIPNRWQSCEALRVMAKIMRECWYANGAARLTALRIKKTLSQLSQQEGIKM
Conditions: not given
As to the method:
The enzymatic activity of compounds of the present invention was monitored measuring the formation of ADP using the ADP-GLO Kinases assay. Following the incubation of the purified enzyme, a substrate and ATP, the produced ADP was converted into ATP, which in turn was converted into light by Ultra-Glo Luciferase. The luminescent signal positively correlated with ADP amount and kinase activity. […] The assay was performed in 384-well format and was validated using a selection of reference compounds that was tested in 11 point concentration-response curve.
A general note: ADP-Glo turns the ADP formed in a reaction into a luminescent signal.
For the compound `CN1CCN(CCC2CCN(C(=O)Oc3ccc4c(Nc5cnnc(-c6cc(Cl)ccc6F)c5)ccnc4c3)CC2)CC1` [Example 70, 4-{[6-(5-Chloro-2-Fluorophenyl)Pyridazin-4-Yl]Amino}Quinolin-7-Yl 4-[2-(4-Methylpiperazin-1-Yl)Ethyl]Piperidine-1-Carboxylate], the IC50 (as a rule, the midpoint of a concentration-inhibition curve) lay in the range of 1 to 5 nM.
On the same count and under the same terms, in the case of `CS(=O)(=O)CCN1CCN(C(=O)Oc2ccc3c(Nc4cnnc(-c5cc(Cl)ccc5F)c4)ccnc3c2)CC1` [Example 53, 4-{[6-(5-Chloro-2-Fluorophenyl)Pyridazin-4-Yl]Amino}Quinolin-7-Yl 4-(2-Methanesulfonylethyl)Piperazine-1-Carboxylate] it was 1 to 5 nM.

The same assay, now with this note: purified recombinant human ALK5 2.6 nM, TGFβ1 peptide substrate, 25° C, 150 min incubation, ADP-Glo detection; read-out: ALK5 IC50.
In the case of `CN1CCC(OC(=O)c2ccc3c(Nc4cnnc(-c5cc(Cl)ccc5F)c4)ccnc3c2)CC1` [Example 20, 1-Methylpiperidin-4-Yl 4-{[6-(5-Chloro-2-Fluorophenyl)Pyridazin-4-Yl]Amino}Quinoline-7-Carboxylate], the IC50 was less than 1 nM.
In the case of `COC(=O)c1cc2c(Nc3cc(-c4cc(Cl)ccc4F)nnc3CO)ccnc2cc1OCCN1CCN(C)CC1` [Example 165, Methyl 4-{[6-(5-Chloro-2-Fluorophenyl)-3-(Hydroxymethyl)Pyridazin-4-Yl]Amino}-7-[2-(4-Methylpiperazin-1-Yl)Ethoxy]Quinoline-6-Carboxylate], the half-inhibitory concentration (IC50) is less than 1 nM.
The same measure, in the same setting: with `COC(=O)CC1CN(CCC(=O)Nc2cc(Nc3cc(-c4cc(Cl)ccc4F)nnc3C)ccn2)CCN1` (stereo not shown) [Example 97, Methyl 2-(4-{2-[(4-{[6-(5-Chloro-2-Fluorophenyl)-3-Methylpyridazin-4-Yl]Amino}Pyridin-2-Yl)Carbamoyl]Ethyl}Piperazin-2-Yl)Acetate] the figure was less than 1 nM.
With `Cc1nnc(-c2cc(Cl)ccc2F)cc1Nc1ccnc(NC(=O)CN2CC3(CN(C)C3)C2)c1` [Example 143, N-(4-{[6-(5-Chloro-2-Fluorophenyl)-3-Methylpyridazin-4-Yl]Amino}Pyridin-2-Yl)-2-{6-Methyl-2,6-Diazaspiro[3.3]Heptan-2-Yl}Acetamide], the half-maximal inhibitory concentration (IC50) was less than 1 nM.
On the same count and under the same terms, with `Cc1nnc(-c2cc(Cl)ccc2F)cc1Nc1ccnc(NC(=O)CCN2CCC(O)CC2)c1` [Example 140, N-(4-{[6-(5-Chloro-2-Fluorophenyl)-3-Methylpyridazin-4-Yl]Amino}Pyridin-2-Yl)-3-(4-Hydroxypiperidin-1-Yl)Propanamide] the figure was less than 1 nM; with `CN1CC2(CCN(CC(=O)Nc3cc(Nc4cc(-c5cc(Cl)ccc5F)nnc4CO)ccn3)CC2)C1` [Example 179, N-(4-{[6-(5-Chloro-2-Fluorophenyl)-3-(Hydroxymethyl)Pyridazin-4-Yl]Amino}Pyridin-2-Yl)-2-{2-Methyl-2,7-Diazaspiro[3.5]Nonan-7-Yl}Acetamide], less than 1 nM; with `CN1CCN(CCNC(=O)c2cc3c(Nc4cnnc(-c5cc(Cl)ccc5F)c4)ccnc3[nH]2)CC1` [Example 25, 4-{[6-(5-chloro-2-fluorophenyl)pyridazin-4-yl]amino}-N-[2-(4-methylpiperazin-1-yl)ethyl]-1H-pyrrolo[2,3-b]pyridine-2-carboxamide], less than 1 nM.
Still for that read-out and setting: in the case of `Cc1nnc(-c2cc(Cl)ccc2F)cc1Nc1ccnc(NC(=O)N2CCC3(CC2)CN(C)C3)c1` [Example 149, N-(4-{[6-(5-Chloro-2-Fluorophenyl)-3-Methylpyridazin-4-Yl]Amino}Pyridin-2-Yl)-2-Methyl-2,7-Diazaspiro[3.5]Nonane-7-Carboxamide] it was less than 1 nM.
In the case of `CNCCn1cc(C(=O)Nc2cc(Nc3cc(-c4cc(Cl)ccc4F)nnc3C)ccn2)cn1` [Example 155, N-(4-{[6-(5-Chloro-2-Fluorophenyl)-3-Methylpyridazin-4-Yl]Amino}Pyridin-2-Yl)-1-[2-(Methylamino)Ethyl]-1H-Pyrazole-4-Carboxamide], the IC50 is less than 1 nM.
Still for that read-out and setting: with `COC(=O)NCCN1CCN(CC(=O)Nc2cc(Nc3cc(-c4cc(Cl)ccc4F)nnc3C)ccn2)CC1` [Example 109, methyl N-[2-(4-{[(4-{[6-(5-chloro-2-fluorophenyl)-3-methylpyridazin-4-yl]amino}pyridin-2-yl)carbamoyl]methyl}piperazin-1-yl)ethyl]carbamate] the figure was less than 1 nM.
The same measure, in the same setting: in the case of `CN1CC[C@@H](OC(=O)c2ccc3c(Nc4cnnc(-c5cc(Cl)ccc5F)c4)ccnc3c2)C1` [Example 54, (3R)-1-Methylpyrrolidin-3-Yl 4-{[6-(5-Chloro-2-Fluorophenyl)Pyridazin-4-Yl]Amino}Quinoline-7-Carboxylate] it was 1 to 5 nM; in that of `Cc1nnc(-c2cc(Cl)ccc2F)cc1Nc1ccnc(NC(=O)CCN2CCS(=O)(=O)CC2)c1` [Example 132, N-(4-{[6-(5-Chloro-2-Fluorophenyl)-3-Methylpyridazin-4-Yl]Amino}Pyridin-2-Yl)-3-(1,1-Dioxo-11,6-Thiomorpholin-4-Yl)Propanamide], less than 1 nM.
The same measure, in the same setting: in the case of `CN(C)CCN1CCN(CCOc2ccc3c(Nc4cnnc(-c5cc(Cl)ccc5F)c4)ccnc3c2)CC1` [Example 68, N-[6-(5-Chloro-2-Fluorophenyl)Pyridazin-4-Yl]-7-[2-[4-[2-(Dim Ethylamino)Ethyl]Piperazin-1-Yl]Ethoxy]Quinolin-4-Amine] it was less than 1 nM; in that of `Cc1nnc(-c2cc(Cl)ccc2F)cc1Nc1ccnc(NC(=O)CCN2CCSCC2)c1` [Example 120, N-(4-{[6-(5-Chloro-2-Fluorophenyl)-3-Methylpyridazin-4-Yl]Amino}Pyridin-2-Yl)-3-(Thiomorpholin-4-Yl)Propanamide], less than 1 nM; in that of `NCCN1CCN(CCOc2ccc3c(Nc4cnnc(-c5cc(Cl)ccc5F)c4)ccnc3c2)CC1` [Example 66, 7-{2-[4-(2-Aminoethyl)Piperazin-1-Yl]Ethoxy}-N-[6-(5-Chloro-2-Fluorophenyl)Pyridazin-4-Yl]Quinolin-4-Amine], less than 1 nM.
`Cc1nnc(-c2cc(Cl)ccc2F)cc1Nc1ccnc(NC(=O)CN2CCCN(C)CC2)c1` [Example 166, N-(4-{[6-(5-Chloro-2-Fluorophenyl)-3-Methylpyridazin-4-Yl]Amino}Pyridin-2-Yl)-2-(4-Methyl-1,4-Diazepan-1-Yl)Acetamide]: the half-inhibitory concentration (IC50) was less than 1 nM.
For `CN1CC[C@H](OC(=O)c2ccc3c(Nc4cnnc(-c5cc(Cl)ccc5F)c4)ccnc3c2)C1` [Example 58, (3S)-1-Methylpyrrolidin-3-Yl 4-{[6-(5-Chloro-2-Fluorophenyl)Pyridazin-4-Yl]Amino}Quinoline-7-Carboxylate], the concentration for half-maximal inhibition (IC50) is 1 to 5 nM.
Take `CN1CCC(CCNC(=O)c2cc3c(Nc4cnnc(-c5cc(Cl)ccc5F)c4)ccnc3[nH]2)CC1` [Example 27, 4-{[6-(5-Chloro-2-Fluorophenyl)Pyridazin-4-Yl]Amino}-N-[2-(1-Methylpiperidin-4-Yl)Ethyl]-1H-Pyrrolo[2,3-b]Pyridine-2-Carboxamide]: the IC50 is less than 1 nM.
For the compound `Fc1ccc(Cl)cc1-c1cc(Nc2nc3cccnc3[nH]2)cnn1` [Example C1, 6-(5-chloro-2-fluorophenyl)-N-{3H-imidazo[4,5-b]pyridin-2-yl}pyridazin-4-amine, reference compound], the concentration for half-maximal inhibition (IC50) worked out at 6290 nM.
Same read-out and setting: in the case of `CN1CCCN(CCOc2ccc3c(Nc4cnnc(-c5cc(Cl)ccc5F)c4)ccnc3c2)C1` [Example 62, N-[6-(5-Chloro-2-Fluorophenyl)Pyridazin-4-Yl]-7-[2-(3-Methyl-1,3-Diazinan-1-Yl)Ethoxy]Quinolin-4-Amine] it was less than 1 nM.
